IC50 data for 29 compounds are collected here from BindingDB's records for patent US20240083908 (Modulus Discovery, 2024).

For the experiment, the target named is Poly(ADP-ribose) glycohydrolase (Homo sapiens, UniProt Q86W56). Nature of the experiment: PARG Activity Assay. As to the method: PARG Activity Assay was performed in Streptavidin-coated 96-well plates. […] The substrate solution was added to the 96-well plate at the volume of 200 micro liter per well and incubated for 3 hours at room temperature. After the incubation, the substrate solution was discarded and assay plate was washed 4 times with 220 micro liter of PBS containing 0.1% Tween20 (PBST). […] The diluted enzyme solution was pre-incubated with compounds for 1 hour at room temperature in a 96-well plate and transferred 100 micro liter per well to the poly (ADP-ribose) substrate-coated assay plate. The plate was incubated for 1 hour at 25° C. and then washed 4 times with 220 micro liters of PBST. For the detection of non-digested poly (ADP-ribose) polymer on the plate, mouse anti-poly (ADP-ribose) antibody diluted with 0.2% BSA containing PBS was added 100 micro liters per well and incubated 1 hour at room temperature. Plate was washed 4 times with TBST and 100 micro liter of HRP-labeled anti-mouse Ig antibody was added to the wells. Plate was incubated for 30 minutes at room temperature and then washed 4 times with PBST. For the detection 100 micro liters of TMB substrate solution was added to the wells. After sufficient color development, reaction was stopped by addition of 50 micro liter of 0.2 M […].
Poly(ADP-ribose) glycohydrolase, sequence (Q86W56 whole entry): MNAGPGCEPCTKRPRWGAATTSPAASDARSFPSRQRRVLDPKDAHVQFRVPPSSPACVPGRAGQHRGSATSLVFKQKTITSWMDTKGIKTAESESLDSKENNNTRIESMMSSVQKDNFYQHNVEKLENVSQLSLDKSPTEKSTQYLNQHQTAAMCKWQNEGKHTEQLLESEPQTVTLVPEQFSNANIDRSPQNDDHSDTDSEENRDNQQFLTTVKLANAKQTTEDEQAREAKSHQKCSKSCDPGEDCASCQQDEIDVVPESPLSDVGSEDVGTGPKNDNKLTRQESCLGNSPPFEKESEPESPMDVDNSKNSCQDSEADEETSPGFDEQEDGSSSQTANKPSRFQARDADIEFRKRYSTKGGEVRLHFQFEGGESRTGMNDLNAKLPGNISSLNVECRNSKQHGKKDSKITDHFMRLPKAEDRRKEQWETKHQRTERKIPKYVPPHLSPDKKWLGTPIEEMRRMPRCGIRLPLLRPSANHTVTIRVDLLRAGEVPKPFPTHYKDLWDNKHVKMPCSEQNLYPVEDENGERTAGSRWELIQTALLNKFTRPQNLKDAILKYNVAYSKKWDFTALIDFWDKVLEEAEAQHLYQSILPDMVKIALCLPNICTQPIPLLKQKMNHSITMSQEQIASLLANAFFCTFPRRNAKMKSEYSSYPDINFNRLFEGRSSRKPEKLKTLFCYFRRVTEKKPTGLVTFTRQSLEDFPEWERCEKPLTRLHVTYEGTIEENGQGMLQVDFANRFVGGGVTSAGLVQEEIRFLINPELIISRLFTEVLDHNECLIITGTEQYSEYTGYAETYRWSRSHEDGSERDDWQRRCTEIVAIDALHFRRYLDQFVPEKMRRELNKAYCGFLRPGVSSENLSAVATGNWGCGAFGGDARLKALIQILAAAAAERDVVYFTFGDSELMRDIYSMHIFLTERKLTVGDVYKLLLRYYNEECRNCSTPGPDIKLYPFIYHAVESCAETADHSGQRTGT
`Cc1ncc(Cn2c(=O)[nH]c3sc(S(=O)(=O)NC4(C)CC4)cc3c2=O)s1` [US20240083908, Example 1] came in with an IC50 of 22900 nM.
With `Cc1ncc(Cn2c(=O)c3cc(S(=O)(=O)NC4(C)CC4)sc3n(CCCN(C)C)c2=O)s1` [US20240083908, Example 8], half-maximal inhibition (IC50) required 630 nM.
`Cc1nc(C)c(Cn2c(=O)n(Cc3cnn(C)c3)c(=O)c3cc(S(=O)(=O)NC4(C)CC4)sc32)s1` [US20240083908, Example 25] displayed an IC50 of 13 nM.
In turn, `Cn1cc(Cn2c(=O)c3cc(S(=O)(=O)NC4(C)CC4)sc3n(Cc3ccc4c(c3)COC4)c2=O)cn1` [US20240083908, Example 28] came in with an IC50 of 10 nM.
Compound `Cn1cc(Cn2c(=O)c3cc(S(=O)(=O)NC4(C)CC4)sc3n(Cc3ccc4cn[nH]c4c3)c2=O)cn1` [US20240083908, Example 36] displayed an IC50 of 5.3 nM.
With `Cn1cc(Cn2c(=O)c3cc(S(=O)(=O)NC4(C)CC4)sc3n(Cc3ccc4cncn4c3)c2=O)cn1` [US20240083908, Example 40], inhibition was half-maximal at 4.1 nM (IC50).
Then `COc1ccc(Cn2c(=O)n(Cc3cnn(C)c3)c(=O)c3cc(S(=O)(=O)NC4(C)CC4)sc32)cc1` [US20240083908, Example 50], with 40 nM; and `Cn1cc(Cn2c(=O)c3cc(S(=O)(=O)NC4(C)CC4)sc3n(Cc3cnn(CCO)c3)c2=O)cn1` [US20240083908, Example 57], with 20 nM.
`COCc1cc2cc(Cn3c(=O)n(Cc4cnn(C)c4)c(=O)c4cc(S(=O)(=O)NC5(C)CC5)sc43)ccc2o1` [US20240083908, Example 63] displayed an IC50 of 20 nM.
Regarding `Cn1cc(Cn2c(=O)c3cc(S(=O)(=O)NC4(C)CC4)sc3n(Cc3ccc4oc(CO)cc4c3)c2=O)cn1` [US20240083908, Example 64], inhibition was half-maximal at 15 nM (IC50).
The compound `Cn1cc(Cn2c(=O)c3cc(S(=O)(=O)NC4(C)CC4)sc3n(Cc3ccc(OC4CC4)cc3)c2=O)cn1` [US20240083908, Example 68] registered an IC50 of 63 nM.
`CNCCN(C)c1ccc(Cn2c(=O)n(Cc3cnn(C)c3)c(=O)c3cc(S(=O)(=O)NC4(C)CC4)sc32)cc1F` [US20240083908, Example 77] yielded an IC50 of 70 nM.
`CN(C)CCN(C)c1ccc(Cn2c(=O)n(Cc3cnn(C)c3)c(=O)c3cc(S(=O)(=O)NC4(C)CC4)sc32)cc1F` [US20240083908, Example 78]: the IC50 turned out to be 111 nM.
As for `Cn1cc(Cn2c(=O)c3cc(S(=O)(=O)NC4(C)CC4)sc3n(C3CCNCC3)c2=O)cn1` [US20240083908, Example 91], the IC50 came out at 270 nM.
Turning to `CC(=O)N1CCC(n2c(=O)n(Cc3cnn(C)c3)c(=O)c3cc(S(=O)(=O)NC4(C)CC4)sc32)CC1` [US20240083908, Example 92], the 50% inhibitory concentration (IC50) was 230 nM.
In turn, `CNCCC(=O)N1CCC(n2c(=O)n(Cc3cnn(C)c3)c(=O)c3cc(S(=O)(=O)NC4(C)CC4)sc32)CC1` [US20240083908, Example 95] gave an IC50 of 320 nM.
`CN1CCC(Cn2c(=O)n(Cc3cnn(C)c3)c(=O)c3cc(S(=O)(=O)NC4(C)CC4)sc32)CC1` [US20240083908, Example 98] came in with an IC50 of 5940 nM.
`Cn1cc(Cn2c(=O)c3cc(S(=O)(=O)NC4(C)CC4)sc3n(CC3CCN(CCO)CC3)c2=O)cn1` [US20240083908, Example 99] returned an IC50 of 500 nM.
Then `Cn1cc(Cn2c(=O)c3cc(S(=O)(=O)NC4(C#N)CC4)sc3n(Cc3ccc4c(c3)COC4)c2=O)cn1` [US20240083908, Example 100], with 42 nM; and `Cc1nc(C)c(Cn2c(=O)n(Cc3cnn(CCO)c3)c(=O)c3cc(S(=O)(=O)NC4(C)CC4)sc32)s1` [US20240083908, Example 104b], with 120 nM; and `Cc1nc(C)c(Cn2c(=O)n(Cc3ccc(Cl)nc3)c(=O)c3cc(S(=O)(=O)NC4(C)CC4)sc32)s1` [US20240083908, Example 105], with 50 nM.
Then `CC1(NS(=O)(=O)c2cc3c(=O)n(Cc4nc5c(s4)CCCC5)c(=O)n(Cc4ccc5c(c4)COC5)c3s2)CC1` [US20240083908, Example 106], with 990 nM.
In the case of `Cc1ncc(Cn2c(=O)c3cc(S(=O)(=O)NC4(C)CC4)sc3n(Cc3cc(C(C)C)nn3C)c2=O)s1` [US20240083908, Example 107], the IC50 turned out to be 70 nM.
In turn, `Cn1cc(Cn2c(=O)c3cc(S(=O)(=O)NC4(C)CC4)sc3n(Cc3cnc4c(c3)COC4)c2=O)cn1` [US20240083908, Example 108] showed an IC50 of 4 nM.
`Cn1cc(Cn2c(=O)c3cc(S(=O)(=O)NC4(C)CC4)sc3n(Cc3cc4c(cc3F)COC4)c2=O)cn1` [US20240083908, Example 110] displayed an IC50 of 17 nM.
Turning to `COc1cc2c(cc1Cn1c(=O)n(Cc3cnn(C)c3)c(=O)c3cc(S(=O)(=O)NC4(C)CC4)sc31)COC2` [US20240083908, Example 111], the IC50 came out at 120 nM.
`COc1cc(Cn2c(=O)n(Cc3cnn(C)c3)c(=O)c3cc(S(=O)(=O)NC4(C)CC4)sc32)ccc1F` [US20240083908, Example 121] displayed an IC50 of 20 nM.
`Cn1cc(Cn2c(=O)c3cc(S(=O)(=O)NC4(C)CC4)sc3n(Cc3ccc4c(c3)CC(=O)N4)c2=O)cn1` [US20240083908, Example 130]: the IC50 was found to be 3 nM.
`Cn1cc(Cn2c(=O)c3cc(S(=O)(=O)NC4(C)CC4)sc3n(-c3ccc(F)cc3)c2=O)cn1` [US20240083908, Example 136] showed an IC50 of 860 nM.

The term IC50 denotes the concentration needed to halve the response being measured.
